“Also recorded” adds a separate entry of the source.
How the values were obtained:
6 Hz-induced seizures = test: 6 Hz (44 mA) seizure model; assay type: in vivo; conditions: mice; for Number protected/number tested: 2 hr post dosing
From the text: (§1) This seizure model is utilized to screen for drugs that might […] by other screening approaches. For example, the highly used anticonvulsant leviteracetam was effective in this test but not in the pentylenetetrazole assay. Adult, male mice were subjected to 6 Hz stimulation at 44 mA as originally described by Barton et al. (Epilepsy Res. 2001; 47:217-27) and conducted per protocol of the NTH Anticonvulsant Screening Program (available online from the National Institute of Neurological Disorders and Stroke—6 Hz 44 mA Psychomotor Seizure Model, Mouse). Briefly, a mouse was dosed with KRM-II-81, p.o., and 2 hr later given 6 Hz stimulation for 3 sec delivered through corneal electrodes at 44 mA and observed for the presence or absence of seizure activity. A separate group of mice was dosed with higher doses of KRM-II-81 and observed for potential deficits in motor performance and overt signs of toxicity at 4 hr post dosing.

motor performance = test: Observed motor effects / overt toxicity 4 hr after oral dosing; assay type: in vivo; conditions: for Observation (motor effects) / Number with observed motor effects: 4 hr post dosing, mice
From the text: as §1

rat E18 cortical neurons = test: Microelectrode array recording of cultured cortical neuron network; assay type: cell-based; conditions: 3 μM
Protocol: Meastro 12 well plates (Axion Biosystems, Atlanta, Ga.) were treated with a solution of 0.1% polyethylenimine for 2-4 hours, rinsed with sterile H2O and let dry overnight. Prior to plating of neurons, the MEAs were treated with solution of 20 μg/ml laminin for a minimum of 1 hour.
Cortices isolated from […] (MEA) were obtained from BrainBits LLC, (Springfield, Ill.) and digested enzymatically with TrypLE Express (Gibco), After 15 minutes of digestion, the tissue was mechanically dissociated with a series of sterile fire-polished glass pipettes of decreasing diameter. The dissociated neurons were plated directly onto substrate-integrated MEA plates and incubated in Nb Active1 (Brainbits LLC, Springfield, Ill.) supplemented with 5% dialyzed fetal bovine serum, 0.25% Glutamax (Gibco). Cell cultures were maintained in tissue incubator (37° C., 6% CO2) and fed twice a week by exchanging half of the medium. The experiments were performed on DIV 19-25 thus allowing partial maturation of the neurons. Prior to the experiment, the cell culture media was replaced with external buffer containing: 129 mM NaCl, 5 mM KCl, 2 mM CaCl, 1 mM […], 10 mM HEPES, 10 mM glucose. To achieve hyper-excitation the external buffer was modified by removal of magnesium or by addition of 1 mM 4aminopyridine (4-AP).
The recordings were obtained at 37° C. using Meastro System with integrated AxIS 2.3 analysis software (Axion Biosystems, Atlanta, Ga.). Channels were sampled simultaneously with a gain of 1200× and a sampling rate of 12.5 kHz/channel. On-line spike detection was done with the AXIS adaptive spike detector. For recordings, a Butterworth band-pass filter (with a high-pass cutoff of 75 Hz and low-pass cutoff of 4000 Hz) was applied along with a variable threshold spike detector set at 7× standard deviation of the rms-noise on each channel. Only wells that did show spontaneous activity (more than 0.3 Hz) on the day planned for the experiment were treated with a compound. Burst was defined as a minimum of 5 spikes occurring with an interspike interval of less than 100 ms. A minimum of one burst per minute was required for bursting analysis. Compounds were added by manual pipetting and the activity was sampled for six minutes prior and post compound addition.
The data were normalized to baseline activity and reported as mean±standard error of the mean (SEM). For single treatment a single sample t-test was used. To compare between group effects, analysis of variance (ANOVA) with Dunnett's multiple comparison test were utilized; P<0.05 was considered significant.

[1] = test system: human (α2), or rat (α1, α3, α5, γ2L, β3) GABAA receptor subunits; test: Whole-cell patch-clamp GABA current responses in transfected HEK-293T cells; assay type: cell-based; conditions: GABA EC3-5, drug concentration 100 nM
Protocol: Human […] (HEK-293T) were transiently transfected with full-length cDNAs encoding human (α2), or rat (α1, α3, α5, γ2L, β3) GABAA receptor subunits using calcium phosphate precipitation. Positively transfected cells were isolated by utilizing co-transfection of a plasmid encoding a surface antibody (pHook™-1, Invitrogen). 20-52 hours following transfection, cells were mixed with magnetic beads coated with antigen specific for the pHook antibody, isolated with a magnetic stand, and then plated onto coverslips and used for patch-clamp recordings 18-28 hours later.
Current responses to GABA were recorded in the whole-cell configuration, with cells voltage-clamped at −50 mV. The bath solution contained (in mM): 142 NaCl, 8.1 KCl, 6 MgCl2, 1 CaCl2), and 10 HEPES (4-(2-hydroxyethyl)-1-piperazineethanesulfonic acid) with pH=7.4 and osmolarity adjusted to 295-305 mOsm. The electrode (internal) solution consisted of (in mM); 153 KCl, 1 MgCl2, 5 K-EGTA (ethylene glycol-bis (β-aminoethyl ether N,N,N′N′-tetraacetate)), and 10 HEPES with pH=7.4 and osmolarity adjusted to 295-305 mOsm. […] Currents were recorded with an Axon 200B (Foster City, Calif.) patch clamp amplifier. […] Data were analyzed by two-way ANOVA followed by post-hoc Tukey's multiple comparison test. […]

[2] = test system: immobility in tail-suspension test; test: Tail-suspension assay; assay type: in vivo; conditions: C57Bl/6 mice
Protocol: Male, C57Bl/6 mice (Envigo, Indianapolis, Ind.) were employed in these experiments. Med Associates Inc. (Fairfax, Vt., USA), apparatus SOF-821 was utilized. The TST was an automated version of published methods in which the tail was secured to a lever on the ceiling of the chamber. The duration of immobility was recorded by a force transducer for a period of 10 min.
Imipramine was dissolved in water.

anticonvulsant efficacy = test: ED50 for anticonvulsant efficacy (model not stated); assay type: in vivo; conditions: Rattus norvegicus, ip, rats
From the text: (Table 4). Using these unbound drug concentrations, the PI based on drug levels in plasma was 3 and that based upon brain drug levels was 3.8.

For C#Cc1ccc2c(c1)C(c1ccccn1)=NCc1c(-c3cnco3)ncn1-2 [KRM-II-81, 5-(8-ethynyl-6-(pyridin-2-yl)-4H-benzo[f]imidazo[1,5-a][1,4]diazepin-3-yl)oxazole], the Number protected/number tested (6 Hz-induced seizures; dose 10, p.o.) was 0/8, the Number protected/number tested (6 Hz-induced seizures; dose 25, p.o.) was 3/8 and the Number protected/number tested (6 Hz-induced seizures; dose 50, p.o.) was 7/8. The “6 Hz Potency (MED)” value (6 Hz-induced seizures; p.o., doses 10-50 mg/kg) was 50 mg/kg, the “loss of righting (mice affected)” value (motor performance; 150 mg/kg p.o.) was 1/8 and the “loss of righting (mice affected)” value (motor performance; 200 mg/kg p.o.) was 1/8. The “more severe tremor (mice affected)” value (motor performance; 200 mg/kg p.o.) was 1/8, the “Observation (motor effects)” value (motor performance; dose 100 mg/kg, p.o.) was “Mild tremor; also recorded: tremors” and the “Number with observed motor effects” value (motor performance; dose 50, p.o.) was 0/8. For the same compound, the “Number with observed motor effects” value (motor performance; dose 100, p.o.) was 3/8, the “Number with observed motor effects” value (motor performance; dose 150, p.o.) was 5/8 and the “Observation (motor effects)” value (motor performance; dose 150, p.o.) was “tremor, unable to grasp”. For the same compound, the “Number with observed motor effects” value (motor performance; dose 200, p.o.) was 8/8, the “Observation (motor effects)” value (motor performance; dose 200, p.o.) was “more severe tremor'; also recorded: loss of righting” and the frequency of bursting (rat E18 cortical neurons; hyper-excited by 1 mM 4AP, n=6, mean±SEM) was 50.9±8.8 % of control. The frequency of spiking (rat E18 cortical neurons; hyper-excited by 1 mM 4AP, n=7, mean±SEM) was 50.5±7.5 % of control, the frequency of bursting (rat E18 cortical neurons; hyper-excited by removal of magnesium, n=5, mean±SEM) was 54.8±7.1 % of control and the frequency of spiking (rat E18 cortical neurons; hyper-excited by removal of magnesium, n=7, mean±SEM) was 62.2±3.8 % of control. For the same compound, the “frequency of spiking” value (rat E18 cortical neurons; normal magnesium external solution, n=7) was “no significant effect”, the “frequency of bursting” value (rat E18 cortical neurons; normal magnesium, n=7) was “no significant effect” and the “frequency of bursting” value (rat E18 cortical neurons; reduced magnesium (0.1 mM Mg++), n=4) was “no significant effect”. The “frequency of spiking” value (rat E18 cortical neurons; reduced magnesium (0.1 mM Mg++), n=4, p>0.05) was “small depression of spiking”, the “selectivity for α2 and α3 over α1” value [1] was “selective for α2 and α 3 over α1” and the “immobility in tail-suspension test” value ([2]; i.p., 100 mg/kg significantly greater than vehicle, 100 mg/kg) was “slight increase in immobility at the higher doses tested; also recorded: not active”. The “sedation-like effects” value ([2]; higher doses tested) was “moderate sedation-like effects” and the ED50 (anticonvulsant efficacy) was 17.3 mg/kg.
